Results from patent US11981953B2, “Method to screen compounds for antifungal activity and pharmaceutical compositions and methods to treat fungal diseases by inhibiting spore germination” (WISCONSIN ALUMNI RESEARCH FOUNDATION, priority 2018, dated 2024).
Where a name gives a salt, the structure may show the parent alone. Read-outs that look alike come from different tables or passages of the source.

What was measured:
Assay type in all cases: cell-based
[1] = tested on: Cryptococcus neoformans yeast replication; conditions: signal relative to negative control
Text: (§1) To identify inhibitors of Cryptococcus neoformans spore germination, a high throughput screen was developed that utilizes a nanoluciferase construct to monitor whether spores germinate in the presence of inhibitor. Briefly a protein luciferase construct was created resulting in a low luciferase signal for non-germinated spores and a high signal from germinated and replicating cells. The screen was coupled with OD600 readings to monitor the ability of compounds to inhibit yeast replication. The examples focused on FDA-approved drugs, as these drugs have the potential of being repurposed into antifungal therapeutics. To determine whether any FDA-approved drugs were able to inhibit Cryptococcus neoformans spore germination and yeast replication, the aforementioned high throughput screen was performed on the L1300 Selleck FDA-Approved Drug Library containing an array of 1108 compounds. This library of compounds is available commercially from Selleck Chemicals, 14408 W Sylvanfield Drive, Houston, Tex. 77014, USA.
(§2) The screening was successful at identifying known antifungal drugs as inhibitors of yeast replication as indicated by an OD600 signal of less than 75% of the negative control (Table 2). For the purpose of these examples, antifungal drugs were defined as any FDA-approved drug used in the treatment of fungal infections. Of these 23 known antifungal drugs, only six (6) were identified as inhibitors of spore germination, indicated by a luciferase signal of less than 30% of the negative control.

[2] = tested on: Cryptococcus neoformans spore germination; assay: High throughput nanoluciferase screen of spore germination (L1300 Selleck FDA-Approved Drug Library)
Text: as §1, §2

[3] = tested on: Cryptococcus neoformans (JEC21); assay: MIC/MFC experiments (EUCAST based), JEC21; conditions: for Ability to inhibit yeast growth / replication in MIC and MFC testing: yeast strain not given, data not shown for non-inhibitors; for MFC: Cryptococcus neoformans
Procedure: (§3) All minimum inhibitory concentration (MIC) experiments were based on EUCAST methodology. […] After 6-hour incubation, yeast cells were washed in 1×PBS and quantified using a hemocytometer. […] Cryptococcus neoformans cells were incubated for 2 days at 30° C. while Candida albicans strains were incubated for 2 days at 35° C. OD600 readings were used to assess the MIC values for each drug. To determine minimum fungicidal concentrations (MFC) values, 3 μL per well were plated on YPD and allowed to grow for 2 days.

[4] = tested on: Cryptococcus neoformans (H99); assay: MIC/MFC experiments (EUCAST based), H99; conditions: 48 h; for MFC: Cryptococcus neoformans
Procedure: as §3

[5] = tested on: Candida albicans (SC5314); assay: MIC/MFC experiments (EUCAST based), Candida albicans; conditions: SC5314, 48 h
Procedure: as §3

[6] = tested on: Cryptococcus neoformans spores (JEC20 x JEC21); assay: Quantitative germination assay (microfluidic devices, cell size and shape)
Procedure: All germination assays are based on Barkal et al., 2016. Briefly, microfluidic devices were loaded with 1×10^5 spores, and at 0 hours, SD media with drug of interest, were added to the sample. Spores were allowed to germinated at 30° C. in a humidified chamber and cells were monitored every two (2) hours for 16 hours. Each assay was performed in two (2) individual wells with three (3) field of views acquired from each well. All images were analyzed as previously described based on cell shape and size. Population ratio of spores, intermediate, and yeast cells were determined. Error bars in plots are based on variation between all fields of view acquired. […] After the 16-hour experiment, samples were plated on YPD and allowed to grow at 30° C. to determine if drugs were completely germicidal or not based on lack of growth. If assays were unable to be performed in microfluidic devices, the […] spores were incubated in identical conditions outside of PDMS devices and only loaded into devices for image acquisition.

[7] = tested on: Aspergillus Fumigatus (AF293); assay: Aspergillus fumigatus MIC on conidia; conditions: Aspergillus fumigatus; Table 4; conidia; lowest concentration with complete absence of germ tubes or hyphae; read-out: MIC
Procedure: Conidia at a final concentration of 2×10^4 cells were incubated in RPMI, 0.33 M MOPS, and 2% glucose at pH 7 at varying concentrations of inhibitors, with a final volume of 200 μL.

[8] = Table 2, antifungal drugs, less than 75% = inhibitor of yeast replication
[9] = Table 2, antifungal drugs, signal relative to negative control, less than 30% = inhibitor of germination
[10] = Table 3, other FDA-approved drugs
[11] = Table 3, other FDA-approved drugs, signal relative to negative control
[12] = Table 4, plated on YPD, 2 days, read-out: MFC

Compound	Replication Percent OD600 [1, 8]	Germination Percent Luciferase Signal [2, 9]	Replication Percent OD600 [1, 10]	also measured
CCC(C)(C)c1ccc(CC(C)CN2C[C@@H](C)O[C@@H](C)C2)cc1 (stereo partly drawn) [Amorolfine HCl]	41.4%	88.6%	–	–
C[C@@H]1[C@H](O)[C@@H](C)/C=C/C=C/C=C/C=C/C=C/C=C/C=C/[C@H](O[C@@H]2O[C@H](C)[C@@H](O)[C@H](N)[C@@H]2O)C[C@@H]2O[C@](O)(C[C@@H](O)C[C@@H](O)[C@H](O)CC[C@@H](O)C[C@@H](O)CC(=O)O[C@H]1C)C[C@H](O)[C@H]2C(=O)O [Amphotericin B]	45.7%	84.6%	–	–
CC(C)(C)CC(C)(C)c1ccc(OCCOCC[N+](C)(C)Cc2ccccc2)cc1 [Benzethonium chloride]	–	–	30.3%	Germination Percent Luciferase Signal [2]: 6.9%
OC(CCN1CCCCC1)(c1ccccc1)C1CC2C=CC1C2 (stereo not drawn) [Biperiden HCl]	–	–	56.6%	Germination Percent Luciferase Signal [2, 11]: 23.4%; Ability to inhibit yeast growth / replication in MIC and MFC testing [3]: unable to inhibit yeast growth
CN(Cc1ccc(C(C)(C)C)cc1)Cc1cccc2ccccc12 [Butenafine HCl]	32.9%	57.5%	–	–
Clc1ccc(CCC(Cn2ccnc2)Sc2c(Cl)cccc2Cl)cc1 (stereo not drawn) [Butoconazole nitrate]	33.4%	41.5%	–	–
CCCCCCCCCCCCCCCC[N+](C)(C)C.[Br-] [Cetrimonium bromide]	–	–	63.2%	Germination Percent Luciferase Signal [2, 11]: 4.4%
CCCCCCCCCCCCCCCC[n+]1ccccc1 [Cetylpyridinium chloride]	–	–	31.9%	Germination Percent Luciferase Signal [2]: 4.2%; MFC ([3]; 48 h): < 0.78 µg/mL; MFC [4]: < 0.78 µg/mL; MFC [5]: 3.13 µg/mL
CC(C)(C)C(=O)C(Oc1ccc(Cl)cc1)n1ccnc1 (stereo not drawn) [Climbazole]	38.9%	151.5%	–	–
Clc1ccccc1C(c1ccccc1)(c1ccccc1)n1ccnc1 [Clotrimazole]	34.1%	65.9%	–	–
Cc1cc(N)c2ccccc2[n+]1CCCCCCCCCC[n+]1c(C)cc(N)c2ccccc21 [Dequalinium chloride]	–	–	47.9%	Germination Percent Luciferase Signal [2, 11]: 22.3%
CCCCCCCCCCCC[N+](C)(C)CCOc1ccccc1 [Domiphen bromide]	–	–	63.9%	Germination Percent Luciferase Signal [2, 11]: 4.4%
C=C1/C(=C\C=C2/CCC[C@]3(C)[C@@H]([C@H](C)/C=C/[C@H](C)C(C)C)CC[C@@H]23)C[C@@H](O)C[C@@H]1O [Doxercalciferol]	–	–	55.2%	Germination Percent Luciferase Signal [2, 11]: 17.1%
CO[C@H]1C[C@@H]2CC[C@@H](C)[C@@](O)(O2)C(=O)C(=O)N2CCCC[C@H]2C(=O)O[C@H]([C@H](C)C[C@@H]2CC[C@@H](OCCO)[C@H](OC)C2)CC(=O)[C@H](C)/C=C(\C)[C@@H](O)[C@@H](OC)C(=O)[C@H](C)C[C@H](C)/C=C/C=C/C=C/1C [Everolimus]	–	–	67.7%	Germination Percent Luciferase Signal [2, 11]: 15.7%
O=C1[C@H](CC[C@H](O)c2ccc(F)cc2)[C@@H](c2ccc(O)cc2)N1c1ccc(F)cc1 [Ezetimibe]	–	–	51.3%	Germination Percent Luciferase Signal [2, 11]: 22.0%; Ability to inhibit yeast growth / replication in MIC and MFC testing [3]: unable to inhibit yeast growth
Clc1ccc(C(Cn2ccnc2)OCc2ccc(Sc3ccccc3)cc2)c(Cl)c1 (stereo not drawn) [Fenticonazole nitrate]	36.4%	49.1%	–	–
OC(Cn1cncn1)(Cn1cncn1)c1ccc(F)cc1F [Fluconazole]	72.2%	84.0%	–	–

Compound	Replication Percent OD600 [1, 8]	Germination Percent Luciferase Signal [2, 9]	Replication Percent OD600 [1, 10]	also measured
Clc1ccc(C(Cn2ccnc2)OCc2c(Cl)cccc2Cl)c(Cl)c1 (stereo not drawn) [Isoconazole nitrate]	37.0%	16.8%	–	–
CCC(C)n1ncn(-c2ccc(N3CCN(c4ccc(OCC5COC(Cn6cncn6)(c6ccc(Cl)cc6Cl)O5)cc4)CC3)cc2)c1=O (stereo not drawn) [Itraconazole]	58.9%	159.6%	–	–
CC(=O)N1CCN(c2ccc(OCC3COC(Cn4ccnc4)(c4ccc(Cl)cc4Cl)O3)cc2)CC1 (stereo not drawn) [Ketoconazole]	35.4%	154.8%	–	–
COc1cccc(N(C)C(=S)Oc2ccc3c(c2)CCCC3)n1 [Liranaftate]	37.6%	64.8%	–	–
Clc1ccc(COC(Cn2ccnc2)c2ccc(Cl)cc2Cl)c(Cl)c1 (stereo not drawn) [Miconazole nitrate]	38.2%	25.5%	–	–
CN(C/C=C/c1ccccc1)Cc1cccc2ccccc12 [Naftifine HCl]	34.5%	55.5%	–	–
C=CC(=O)N1CCC[C@@H](n2nc(-c3ccc(Oc4ccccc4)cc3)c3c(N)ncnc32)C1 [PCl-32765]	–	–	70.3%	Germination Percent Luciferase Signal [2, 11]: 10.6%
N=C(N)c1ccc(OCCCCCOc2ccc(C(=N)N)cc2)cc1 [Pentamidine HCl]	38.3%	6.5%	–	–
N=C(N)c1ccc(OCCCCCOc2ccc(C(=N)N)cc2)cc1 [Pentamidine isethionate]	–	–	–	MIC ([3]; 48 h, Table 4, yeast, 2 days at 30° C., OD600, read-out: MIC): 1.56 µg/mL; MFC ([3]; 48 h, Table 4, plated on YPD, 2 days, read-out: MFC): 3.13 µg/mL; MIC ([4]; Table 4, yeast, 2 days at 30° C., OD600, read-out: MIC): 6.25 µg/mL; MFC [4, 12]: 6.25 µg/mL; Inhibition of spore germination, antifungal drugs ([6]; concentration not given, bifonazole and econazole nitrate tested outside the microfluidic device, imaged at 0 and 16 hours): able to successfully inhibit spore germination; Spore escape from inhibition (words) ([6]; yeast population increase = escape): none of the ˜10,000 spores showed inherent resistance and escape from inhibition; MIC [7]: > 100 µg/mL; MIC ([5]; Table 4, 2 days at 35° C., OD600, read-out: MIC): 50 µg/mL; MFC [5, 12]: 50 µg/mL
CC[C@@H]([C@H](C)O)n1ncn(-c2ccc(N3CCN(c4ccc(OC[C@@H]5CO[C@@](Cn6cncn6)(c6ccc(F)cc6F)C5)cc4)CC3)cc2)c1=O [Posaconazole]	46.7%	167.2%	–	–
CO[C@H]1C[C@@H]2CC[C@@H](C)[C@@](O)(O2)C(=O)C(=O)N2CCCC[C@H]2C(=O)O[C@H]([C@H](C)C[C@@H]2CC[C@@H](O)[C@H](OC)C2)CC(=O)[C@H](C)/C=C(\C)[C@@H](O)[C@@H](OC)C(=O)[C@H](C)C[C@H](C)/C=C/C=C/C=C/1C [Rapamycin]	–	–	61.8%	Germination Percent Luciferase Signal [2, 11]: 18.5%
Clc1ccc(CSC(Cn2ccnc2)c2ccc(Cl)cc2Cl)cc1 (stereo not drawn) [Sulconazole nitrate]	40.9%	57.8%	–	–
Clc1ccc(C(Cn2ccnc2)OCc2ccsc2Cl)c(Cl)c1 (stereo not drawn) [Tioconazoie]	36.8%	25.0%	–	–
Cc1cccc(N(C)C(=S)Oc2ccc3ccccc3c2)c1 [Tolnaftate]	47.3%	60.2%	–	–
C[C@@H](c1ncncc1F)[C@](O)(Cn1cncn1)c1ccc(F)cc1F [Voriconazole]	35.8%	173.9%	–	–
Caspofungin acetate	48.5%	89.7%	–	–
